Where a SMILES comes first, the peptide text is derived from it. [ ]: non-standard residue; d: D form. The star is where a group is joined. Palmitoyl = CCCCCCCCCCCCCCCC(=O)*; αMeF = C[C@](N)(Cc1ccccc1)C(=O)O; αMeK = C[C@](N)(CCCCN)C(=O)O; Aib = CC(C)(N)C(=O)O
Assays:
Assay type in all cases: cell-based
Conditions in all cases: n = 2
hGIP-R = molecular target: T1, hGIP-R (Homo sapiens, UniProt P48546); experiment: cAMP functional assay, cells expressing human GIP receptor (primary assay)
T1 construct: expressed in transfected cells
T1 sequence (P48546 22-466): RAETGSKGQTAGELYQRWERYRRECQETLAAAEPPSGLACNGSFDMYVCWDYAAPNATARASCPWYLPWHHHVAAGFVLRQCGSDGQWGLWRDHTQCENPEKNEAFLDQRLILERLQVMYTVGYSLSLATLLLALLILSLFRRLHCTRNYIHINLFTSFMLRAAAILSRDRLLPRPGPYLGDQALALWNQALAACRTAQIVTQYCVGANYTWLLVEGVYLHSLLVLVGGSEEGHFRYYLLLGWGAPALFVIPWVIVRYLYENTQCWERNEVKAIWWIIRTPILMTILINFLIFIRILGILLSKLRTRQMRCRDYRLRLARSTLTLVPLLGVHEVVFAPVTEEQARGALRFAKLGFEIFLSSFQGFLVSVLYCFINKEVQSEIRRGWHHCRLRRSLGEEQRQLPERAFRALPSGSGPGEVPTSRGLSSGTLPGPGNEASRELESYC

hGLP-1R = molecular target: T2, hGLP-1R (Homo sapiens, UniProt P43220); experiment: cAMP functional assay, cells expressing human GLP-1 receptor (primary assay)
T2 construct: expressed in transfected cells

hGluc-R = molecular target: T3, hGluc-R (Homo sapiens, UniProt P47871); experiment: cAMP functional assay, cells expressing human glucagon receptor (primary assay)
T3 construct: expressed in transfected cells
T3 sequence (P47871 26-477): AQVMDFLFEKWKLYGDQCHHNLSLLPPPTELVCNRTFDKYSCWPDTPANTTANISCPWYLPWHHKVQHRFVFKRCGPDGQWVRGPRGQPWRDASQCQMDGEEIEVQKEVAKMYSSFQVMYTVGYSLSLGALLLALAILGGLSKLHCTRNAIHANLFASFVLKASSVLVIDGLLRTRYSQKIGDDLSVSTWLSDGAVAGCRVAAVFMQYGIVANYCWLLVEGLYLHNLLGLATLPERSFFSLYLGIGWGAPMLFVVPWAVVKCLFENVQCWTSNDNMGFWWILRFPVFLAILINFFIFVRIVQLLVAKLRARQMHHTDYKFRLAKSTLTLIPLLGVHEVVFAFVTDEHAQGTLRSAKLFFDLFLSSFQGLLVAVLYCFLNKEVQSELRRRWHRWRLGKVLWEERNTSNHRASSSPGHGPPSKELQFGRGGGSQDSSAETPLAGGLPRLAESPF

T2 sequence (P43220 24-463): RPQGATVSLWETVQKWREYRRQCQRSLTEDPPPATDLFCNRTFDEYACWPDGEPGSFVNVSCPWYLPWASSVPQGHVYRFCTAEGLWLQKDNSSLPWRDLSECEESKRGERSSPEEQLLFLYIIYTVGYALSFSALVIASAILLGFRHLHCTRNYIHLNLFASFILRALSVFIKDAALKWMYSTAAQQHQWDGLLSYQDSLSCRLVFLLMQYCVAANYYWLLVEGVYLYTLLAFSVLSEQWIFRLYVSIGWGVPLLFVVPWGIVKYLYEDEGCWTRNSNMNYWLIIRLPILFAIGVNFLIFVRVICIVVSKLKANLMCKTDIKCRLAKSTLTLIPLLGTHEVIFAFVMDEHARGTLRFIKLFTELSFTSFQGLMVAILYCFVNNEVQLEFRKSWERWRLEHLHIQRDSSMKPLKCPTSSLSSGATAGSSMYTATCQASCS

| Structure (SMILES) | EC50 (hGIP-R) | EC50 (hGLP-1R) | EC50 (hGluc-R) |
| --- | --- | --- | --- |
| CC[C@H](C)[C@H](NC(=O)[C@H](Cc1ccccc1)NC(=O)[C@H](CCC(=O)O)NC(=O)[C@H](CCCCN)NC(=O)[C@H](C)NC(=O)[C@H](C)NC(=O)[C@H](CCC(N)=O)NC(=O)CNC(=O)[C@H](CCC(=O)O)NC(=O)[C@H](CC(C)C)NC(=O)[C@H](Cc1ccc(O)cc1)NC(=O)[C@H](CO)NC(=O)[C@H](CO)NC(=O)[C@@H](NC(=O)[C@H](CC(=O)O)NC(=O)[C@H](CO)NC(=O)[C@@H](NC(=O)[C@H](Cc1ccccc1)NC(=O)[C@@H](NC(=O)CNC(=O)[C@H](CCC(=O)O)NC(=O)C(C)(C)NC(=O)[C@@H](N)Cc1c[nH]cn1)[C@@H](C)O)[C@@H](C)O)C(C)C)C(=O)N[C@@H](C)C(=O)N[C@@H](Cc1c[nH]c2ccccc12)C(=O)N[C@@H](CC(C)C)C(=O)N[C@H](C(=O)NC(C)(C)C(=O)NCC(=O)N[C@@H](CCCNC(=N)N)C(N)=O)C(C)C [SEQ ID NO: 23, H-(Aib)^2-EGT^5 FTSDV^10 SSYLE^15 GQAAK^20 EFIAW^25 LV-(Aib)^28-GR^30] | 105 nM | 0.0279 nM | 103 nM |
| CC[C@H](C)[C@H](NC(=O)[C@H](Cc1ccccc1)NC(=O)[C@H](CCC(=O)O)NC(=O)[C@H](CCCCN)NC(=O)[C@H](C)NC(=O)[C@H](C)NC(=O)[C@H](CCC(N)=O)NC(=O)CNC(=O)[C@H](CCC(=O)O)NC(=O)[C@H](CC(C)C)NC(=O)[C@H](Cc1ccc(O)cc1)NC(=O)[C@H](CO)NC(=O)[C@H](CO)NC(=O)[C@@H](NC(=O)[C@H](CC(=O)O)NC(=O)[C@H](CO)NC(=O)[C@@H](NC(=O)[C@H](Cc1ccccc1)NC(=O)[C@@H](NC(=O)CNC(=O)[C@H](CCC(=O)O)NC(=O)C(C)(C)NC(=O)[C@@H](N)Cc1c[nH]cn1)[C@@H](C)O)[C@@H](C)O)C(C)C)C(=O)N[C@@H](C)C(=O)N[C@@H](Cc1c[nH]c2ccccc12)C(=O)N[C@@H](CC(C)C)C(=O)N[C@H](C(=O)N[C@@H](CCCCN)C(=O)NCC(=O)N[C@@](C)(CCCNC(=N)N)C(N)=O)C(C)C [SEQ ID NO: 24, H-(Aib)^2-EGT^5 FTSDV^10 SSYLE^15 GQAAK^20 EFIAW^25 LVKG-(α-MeR)^30] | 111 nM | 0.021 nM | 111 nM |
| CC[C@H](C)[C@H](NC(=O)[C@H](Cc1ccccc1)NC(=O)[C@H](CCC(=O)O)NC(=O)[C@H](CCCCN)NC(=O)[C@H](C)NC(=O)[C@H](C)NC(=O)[C@H](CCC(N)=O)NC(=O)CNC(=O)[C@H](CCC(=O)O)NC(=O)[C@H](CC(C)C)NC(=O)[C@H](Cc1ccc(O)cc1)NC(=O)[C@H](CO)NC(=O)[C@H](CO)NC(=O)[C@@H](NC(=O)[C@H](CC(=O)O)NC(=O)[C@H](CO)NC(=O)[C@@H](NC(=O)[C@H](Cc1ccccc1)NC(=O)[C@@H](NC(=O)CNC(=O)[C@H](CCC(=O)O)NC(=O)C(C)(C)NC(=O)[C@@H](N)Cc1c[nH]cn1)[C@@H](C)O)[C@@H](C)O)C(C)C)C(=O)N[C@@H](C)C(=O)N[C@@H](Cc1c[nH]c2ccccc12)C(=O)N[C@@H](CC(C)C)C(=O)N[C@H](C(=O)N[C@@H](CCCCN)C(=O)NCC(=O)NC(C)(C)C(N)=O)C(C)C [SEQ ID NO: 25, H-(Aib)^2-EGT^5 FTSDV^10 SSYLE^15 GQAAK^20 EFIAW^25 LVKG-(Aib)^30] | 96.4 nM | 0.0277 nM | 96.4 nM |
| CC[C@H](C)[C@H](NC(=O)[C@](C)(Cc1ccccc1)NC(=O)[C@H](CCC(=O)O)NC(=O)[C@](C)(CCCCN)NC(=O)[C@H](C)NC(=O)[C@H](C)NC(=O)[C@H](CCC(N)=O)NC(=O)CNC(=O)[C@H](CCC(=O)O)NC(=O)[C@H](CC(C)C)NC(=O)[C@](C)(Cc1ccccc1)NC(=O)[C@H](CO)NC(=O)[C@H](CO)NC(=O)[C@@H](NC(=O)[C@H](CC(=O)O)NC(=O)[C@H](CO)NC(=O)[C@@H](NC(=O)[C@](C)(Cc1ccccc1)NC(=O)[C@H](CO)NC(=O)CNC(=O)[C@H](CCC(=O)O)NC(=O)C(C)(C)NC(=O)[C@@H](N)Cc1c[nH]cn1)[C@@H](C)O)C(C)C)C(=O)N[C@@H](C)C(=O)N[C@@](C)(Cc1ccccc1)C(=O)N[C@@H](CC(C)C)C(=O)N[C@H](C(=O)N[C@@H](CCCCN)C(=O)NCC(=O)NCC(N)=O)C(C)C [SEQ ID NO: 44, H-(Aib)^2-EG-(S)^5-(α-MeF)^6-TSDV^10 SS-(α-MeF)^13-LE^15 GQAA-(α-MeK)^20 E-(α-MeF)^22-IA-(α-MeF)^25 LVKG-(G)^30] (H-H[Aib]EGS[αMeF]TSDVSS[αMeF]LEGQAA[αMeK]E[αMeF]IA[αMeF]LVKGG-NH2) | 104 nM | 0.00985 nM | 104 nM |
| CC[C@H](C)[C@H](NC(=O)[C@](C)(Cc1ccccc1)NC(=O)[C@H](CCC(=O)O)NC(=O)[C@H](CCCCN)NC(=O)[C@H](C)NC(=O)[C@H](C)NC(=O)[C@H](CCC(N)=O)NC(=O)CNC(=O)[C@H](CCC(=O)O)NC(=O)[C@H](CC(C)C)NC(=O)[C@](C)(Cc1ccccc1)NC(=O)[C@H](CO)NC(=O)[C@H](CO)NC(=O)[C@@H](NC(=O)[C@H](CC(=O)O)NC(=O)[C@H](CO)NC(=O)[C@@H](NC(=O)[C@](C)(Cc1ccccc1)NC(=O)[C@H](CO)NC(=O)CNC(=O)[C@H](CCC(=O)O)NC(=O)C(C)(C)NC(=O)[C@@H](N)Cc1c[nH]cn1)[C@@H](C)O)C(C)C)C(=O)N[C@@H](C)C(=O)N[C@@](C)(Cc1ccccc1)C(=O)N[C@@H](CC(C)C)C(=O)N[C@H](C(=O)N[C@@](C)(CCCCN)C(=O)NCC(=O)NCC(N)=O)C(C)C [SEQ ID NO: 45, H-(Aib)^2-EG-(S)^5-(α-MeF)^6-TSDV^10 SS-(α-MeF)^13-LE^15 GQAAK^20 E-(α-MeF)^22-IA-(α-MeF)^25 LV-(α-MeK)^28-G-(G)^30] (H-H[Aib]EGS[αMeF]TSDVSS[αMeF]LEGQAAKE[αMeF]IA[αMeF]LV[αMeK]GG-NH2) | 104 nM | 0.0223 nM | 104 nM |

Now those with a lower EC50 (hGIP-R), led by results:

| EC50 (hGIP-R) | EC50 (hGLP-1R) | EC50 (hGluc-R) | Structure (SMILES) |
| --- | --- | --- | --- |
| 92.7 nM | 0.105 nM | 92.7 nM | CCCCCCCCCCCCCCCC(=O)NCCCC[C@H](NC(=O)CNC(=O)CNC(=O)[C@](C)(CCCCN)NC(=O)[C@@H](NC(=O)[C@H](CC(C)C)NC(=O)[C@](C)(Cc1ccccc1)NC(=O)[C@H](C)NC(=O)[C@@H](NC(=O)[C@](C)(Cc1ccccc1)NC(=O)[C@H](CCC(=O)O)NC(=O)[C@](C)(CCCCN)NC(=O)[C@H](C)NC(=O)[C@H](C)NC(=O)[C@H](CCC(N)=O)NC(=O)CNC(=O)[C@H](CCC(=O)O)NC(=O)[C@H](CC(C)C)NC(=O)[C@](C)(Cc1ccccc1)NC(=O)[C@H](CO)NC(=O)[C@H](CO)NC(=O)[C@@H](NC(=O)[C@H](CC(=O)O)NC(=O)[C@H](CO)NC(=O)[C@@H](NC(=O)[C@](C)(Cc1ccccc1)NC(=O)[C@H](CO)NC(=O)CNC(=O)[C@H](CCC(=O)O)NC(=O)C(C)(C)NC(=O)[C@@H](N)Cc1c[nH]cn1)[C@@H](C)O)C(C)C)[C@@H](C)CC)C(C)C)C(N)=O [SEQ ID NO: 47, H-(Aib)^2-EG-(S)^5-(α-MeF)^6-TSDV^10 SS-(α-MeF)^13-LE^15 GQAA-(α-MeK)^20 E-(α-MeF)^22-IA-(α-MeF)^25 LV-(α-MeK)^28-G-(G)^30-K(Ε-Palm)] (H-H[Aib]EGS[αMeF]TSDVSS[αMeF]LEGQAA[αMeK]E[αMeF]IA[αMeF]LV[αMeK]GGK(Palmitoyl)-NH2) |
| 91.4 nM | 0.019 nM | 91.4 nM | CC[C@H](C)[C@H](NC(=O)[C@H](Cc1ccccc1)NC(=O)[C@H](CCC(=O)O)NC(=O)[C@H](CCCCN)NC(=O)[C@H](C)NC(=O)[C@H](C)NC(=O)[C@H](CCC(N)=O)NC(=O)CNC(=O)[C@H](CCC(=O)O)NC(=O)[C@H](CC(C)C)NC(=O)[C@H](Cc1ccc(O)cc1)NC(=O)[C@H](CO)NC(=O)[C@H](CO)NC(=O)[C@@H](NC(=O)[C@H](CC(=O)O)NC(=O)[C@H](CO)NC(=O)[C@@H](NC(=O)[C@H](Cc1ccccc1)NC(=O)[C@@H](NC(=O)CNC(=O)[C@H](CCC(=O)O)NC(=O)C(C)(C)NC(=O)[C@@H](N)Cc1c[nH]cn1)[C@@H](C)O)[C@@H](C)O)C(C)C)C(=O)N[C@@H](C)C(=O)N[C@@H](Cc1c[nH]c2ccccc12)C(=O)N[C@@H](CC(C)C)C(=O)N[C@H](C(=O)N[C@@](C)(CCCCN)C(=O)NCC(=O)N[C@@H](CCCNC(=N)N)C(N)=O)C(C)C [SEQ ID NO: 22, H-(Aib)^2-EGT^5 FTSDV^10 SSYLE^15 GQAAK^20 EFIAW^25 LV-(α-MeK)^28-GR^30] |
| 76.5 nM | 0.02 nM | 76.5 nM | CC[C@H](C)[C@H](NC(=O)[C@H](Cc1ccccc1)NC(=O)[C@H](CCC(=O)O)NC(=O)C(C)(C)NC(=O)[C@H](C)NC(=O)[C@H](C)NC(=O)[C@H](CCC(N)=O)NC(=O)CNC(=O)[C@H](CCC(=O)O)NC(=O)[C@H](CC(C)C)NC(=O)[C@H](Cc1ccc(O)cc1)NC(=O)[C@H](CO)NC(=O)[C@H](CO)NC(=O)[C@@H](NC(=O)[C@H](CC(=O)O)NC(=O)[C@H](CO)NC(=O)[C@@H](NC(=O)[C@H](Cc1ccccc1)NC(=O)[C@@H](NC(=O)CNC(=O)[C@H](CCC(=O)O)NC(=O)C(C)(C)NC(=O)[C@@H](N)Cc1c[nH]cn1)[C@@H](C)O)[C@@H](C)O)C(C)C)C(=O)N[C@@H](C)C(=O)N[C@@H](Cc1c[nH]c2ccccc12)C(=O)N[C@@H](CC(C)C)C(=O)N[C@H](C(=O)N[C@@H](CCCCN)C(=O)NCC(=O)N[C@@H](CCCNC(=N)N)C(N)=O)C(C)C [SEQ ID NO: 21, H-(Aib)^2-EGT^5 FTSDV^10 SSYLE^15 GQAA-(Aib)^26 EFIAW^25 LVKGR^30] |

From patent US20160318987A1 (MEDIMMUNE LIMITED, priority 2013, published 2016)
